Experimental data taken from patent US20140066373A1, “TREATING DIABETES WITH OXYTOCIN OR OXYTOCIN ANALOGS” (Albert Einstein College of Medicine of Yeshiva University, priority 2012, published 2014).
Where no end group is shown, it is not given here.

Key:
[1] = tested on: STZ-induced diabetic mice; assay: 7-day intra-third ventricle pretreatment in STZ-induced diabetic mice: GTT, fasting blood insulin, GSIS, body weight; type: in vivo, C57BL/6 mice; conditions: vs STZ control; for first-phase glucose-stimulated insulin secretion (GSIS): blood insulin 3 min after glucose 3 g/kg i.p.; for fasting blood insulin levels / glucose intolerance (glucose tolerance test, GTT and AUC): pretreatment twice per day for 7 days, intra-third ventricle, 1 μg per injection (1 mg [sic] for [Ser4, Ile8]-oxytocin), STZ 40 mg/kg i.p. Day 4 to Day 7
Description: (§1) Animals. C57BL/6 mice were purchased from Jackson Laboratory. All mice were housed in standard conditions. High-fat diet was purchased from Research Diets, Inc. All animal procedures were approved by the Institutional Animal Care and Use Committee. Mice were subjected to body weight measurement on a daily basis surrounding surgical procedures or drug treatments to monitor physical recovery or the effect of drug treatment on body weight.
(§2) Third ventricle cannulation and drug treatment. Third ventricle cannulation procedure was as previously described (39). An ultra-precise small animal stereotactic apparatus (Kopf Instruments) was used to perform implantation of a guide cannula into the third ventricle of anesthetized mice, at the coordinates of 1.8 mm posterior to the bregma and 5.0 mm below the skull surface. Mice were allowed 1-2 weeks for postsurgical recovery. For drug treatment. Oxytocin (Bachem Americas, Inc.), [Ser4, Ile8]-oxytocin (Bachem Americas, Inc.), [Asu1,6]-oxytocin (American Peptide Company, Inc.) or control vehicle were injected via pre-implanted guide cannula into the third ventricle of individually housed mice.
(§3) Blood tests. For glucose tolerance test (GTT), overnight-fasted mice received one-time intraperitoneal injection of glucose (2 g/kg body weight), and blood glucose levels were measured using OneTouch Ultra2 (LifeScan, Inc.). Fasting blood insulin levels were measured with Ultra Sensitive Mouse Insulin ELISA kits (Crystal Chem). Glucose-stimulated insulin secretion (GSIS) test was performed as previously described (19). Overnight-fasted mice received one-time intraperitoneal injection of glucose (3 g/kg body weight), and blood insulin levels were measured at 3 min. and 20 min. after the injection.
Next, it was investigated if oxytocin therapy may treat diabetes by counteracting its main pathological changes of pancreatic beta cell dysfunction and impaired insulin secretion. […] Experimentally, adult C57BL/6 mice on normal chow diet received intra-third ventricle implantation of cannula and postsurgical recovery. Oxytocin pretreatment was given at 1 μg per injection twice per day for 7 consecutive days via pre-implanted cannula, and non-treatment group received vehicle injections. From Day 4 to Day 7 during oxytocin treatment, mice simultaneously received intraperitoneal injections of STZ at 40 mg/kg body weight per day for 4 days to induce diabetes.
The same test strategy of pretreating mice with [Ser4, Ile8]-oxytocin was employed and then evaluating if it could attenuate the extent of STZ-induced beta cell dysfunction and diabetes. Adult chow-fed C57BL/6 mice first received intra-third ventricle injections of [Ser4, Ile8]-oxytocin at 1 mg per injection twice per day for 7 consecutive days. Non-treatment control mice received intra-third ventricle injections of vehicle instead of [Ser4, Ile8]-oxytocin. From Day 4 to Day 7 of [Ser4, Ile8]-oxytocin treatment, both treatment and control groups received intraperitoneal injections of STZ at 40 mg/kg body weight per injection per day for 4 days. The same panel of examinations were performed including glucose tolerance test, fasting blood insulin levels and glucose-stimulated insulin secretion in these mice.
Finally [Asu1,6]-oxytocin was tested for potential […] protection and anti-diabetic effects using an STZ-induced diabetic mouse model. [Asu1,6]-oxytocin pretreatment was given to adult chow-fed C57BL/6 mice via intra-third ventricle injections at 1 μg per injection b.i.d. for 7 consecutive days. Vehicle injections were given in parallel to non-treatment control group. From Day 4 to Day 7 of [Asu1,6]-oxytocin treatment, mice were subjected to STZ induction of diabetes at 40 mg/kg body weight per intraperitoneal injection per day for 4 days. Following [Asu1,6]-oxytocin and STZ treatments, mice were evaluated for glucose tolerance test, fasting blood insulin levels, and glucose-stimulated insulin secretion.

[2] = tested on: normal men; conditions: normal men (29); cited from earlier work
[3] = tested on: obesity; conditions: cited from earlier work
[4] = tested on: HFD-induced prediabetic mouse model; assay: Acute intra-third ventricle therapy in HFD-induced prediabetic (dietary obese) mice: GTT, fasting blood insulin, body weight; type: in vivo, C57BL/6 mice; conditions: for fasting blood insulin levels (hyperinsulinemia) / glucose intolerance (glucose tolerance test, GTT and AUC) / treatment effects compared with oxytocin at the same dose: 2-month HFD mice, intra-third ventricle; for fasting blood insulin levels (hyperinsulinemia) / glucose intolerance (glucose tolerance test, GTT and AUC): 2 μg per injection twice over overnight fasting, vs vehicle; for treatment effects compared with oxytocin at the same dose: 2 μg per injection twice, GTT and fasting insulin
Description: as §1, §2, §3
Acute oxytocin therapy reverses insulin resistance in dietary obese mice independently of body weight. […] To experimentally address whether oxytocin could have an anti-diabetic action, and independently of its anti-obesity effect, an acute oxytocin therapy paradigm was applied to dietary obese mice to avoid confounding body weight changes, so that the potential anti-diabetes effect of oxytocin could be dissected from its anti-obesity effect. Adult male C57BL/6 mice […] of high-fat diet (HFD) feeding since weaning to develop pre-diabetic glucose intolerance and hyperinsulinemia. Then these mice received third-ventricle implantation of guide cannula followed by postsurgical recovery. Oxytocin was administered via pre-implanted third-ventricle cannula at a dose of 2 μg per injection twice over an overnight fasting period, one at the starting point of fasting and the other at 30 min prior to glucose tolerance test (GTT). Mice of treatment control group received intra-third ventricle vehicle injections.
Acute [Ser4, Ile8]-oxytocin therapy improves insulin resistance in dietary obese mice independently of body weight. Having observed the anti-insulin resistance effect of oxytocin, it was next investigated whether oxytocin peptide analogs have similar or stronger treatment effect. The purpose of this experiment was two-fold. First, was to investigate whether the anti-insulin resistance action of oxytocin could be extended to oxytocin analogs. […] Existing oxytocin peptide analogs were screened. [Ser4, Ile8]-oxytocin came out of the screen as a good candidate. […] This stronger anti-insulin resistance effect of [Ser4, Ile8]-oxytocin is in line with structure-based theoretical prediction of drug effects. The substitution of glutamine at amino acid position 4 of oxytocin with serine has two direct effects on peptide function—it strengthens the α-helical structure in peptide (13), which leads to an overall structural stabilization, longer drug duration, and better protein binding property with signaling partners; it also increases the hydrophobicity of peptide, which leads to enhanced membrane permeability and improved tissue distribution. […]

[5] = tested on: type-1 diabetic patients; conditions: type-1 diabetic patients (28); cited from earlier work
[6] = tested on: normal rats; conditions: central or peripheral administration; normal rats (5); cited from earlier work
[7] = tested on: uterine contractile response; conditions: of natural oxytocin, literature report (36); cited from earlier work

## CC[C@H](C)[C@@H]1NC(=O)[C@H](Cc2ccc(O)cc2)NC(=O)[C@@H](N)CSSC[C@@H](C(=O)N2CCC[C@H]2C(=O)N[C@@H](CC(C)C)C(=O)NCC(N)=O)NC(=O)[C@H](CC(N)=O)NC(=O)[C@H](CCC(N)=O)NC1=O [oxytocin, Cys-Tyr-Ile-Gln-Asn-Cys-Pro-Leu-Gly-NH2]
[1]; 7-day pretreatment, STZ mice
  first-phase glucose-stimulated insulin secretion (GSIS): potentiated
[1]; blood insulin 20 min after glucose 3 g/kg i.p., 7-day pretreatment, STZ mice
  second-phase glucose-stimulated insulin secretion (GSIS): potentiated
[1]
  fasting blood insulin levels: protected fasting blood insulin levels
  glucose intolerance (glucose tolerance test, GTT and AUC): significantly improved glucose intolerance
[2]
  pancreatic insulin secretion: can stimulate pancreatic insulin secretion
[3]; chronic central or peripheral oxytocin treatment (25; 37)
  obesity: can decrease obesity
[3]; oxytocin treatment (37)
  food intake: decreases rather than increases food intake
[4]
  fasting blood insulin levels (hyperinsulinemia): significantly improved
  glucose intolerance (glucose tolerance test, GTT and AUC): significantly improved
[4]; obesity-induced type-2 prediabetic mice, acute treatment
  insulin resistance: can acutely reverse insulin resistance
[5]
  pancreatic insulin secretion: can stimulate pancreatic insulin secretion
[6]
  pancreatic insulin secretion: can stimulate pancreatic insulin secretion

## [Asu1,6]-oxytocin
[7]
  intrinsic activity relative to natural oxytocin: ~70%
[1]; 7-day pretreatment, STZ mice
  first-phase glucose-stimulated insulin secretion (GSIS): appreciably improved
[1]
  fasting blood insulin levels: appreciably improved
  glucose intolerance (glucose tolerance test, GTT and AUC): appreciably improved
[4]
  fasting blood insulin levels (hyperinsulinemia): lowered fasting blood insulin levels
  glucose intolerance (glucose tolerance test, GTT and AUC): improved glucose intolerance
  treatment effects compared with oxytocin at the same dose: slightly weaker than oxytocin

## [Ser4, Ile8]-oxytocin (CYISNCPIG; ends and bridges not checked; cysteine pairing not given here; UniProt P01178 20-28, looked up, variant Q4S L8I) [oxytocin analog: glutamine at position 4 substituted with serine, leucine at position 8 with isoleucine; Bachem Americas, Inc]
[1]; 7-day pretreatment, STZ mice
  first-phase glucose-stimulated insulin secretion (GSIS): significantly higher levels of first-phase GSIS than non-treatment group
[1]
  fasting blood insulin levels: ameliorated circulating insulin insufficiency
  glucose intolerance (glucose tolerance test, GTT and AUC): significantly prevented STZ-induced glucose intolerance
[4]
  fasting blood insulin levels (hyperinsulinemia): significantly corrected
  glucose intolerance (glucose tolerance test, GTT and AUC): significantly corrected glucose intolerance
  treatment effects compared with oxytocin at the same dose: higher efficacy than oxytocin
